{
  "source": "paper PMC9848300",
  "about": "“Discovery of novel enasidenib analogues targeting inhibition of mutant isocitrate dehydrogenase 2 as antileukaemic agents” (Journal of Enzyme Inhibition and Medicinal Chemistry, 2023)",
  "type_in_all_cases": "cell-based",
  "key": {"A549/ATCC": {"test_system": "A549/ATCC", "assay": "NCI 60 antitumor screening (single dose)", "details": "Homo sapiens; A549/ATCC (non-small cell lung cancer), single dose 10 μM; read-out: Growth inhibition percentage (GI %)", "procedure,_shortened": "(§1)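 At one concentration (10 μM), compounds are run in triplicate on 60 human cancer lines per the NCI method. Treated-cell growth is recorded as G%. Reported inhibition equals 100 − G%.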"}, "CAKI-1": {"test_system": "CAKI-1", "assay": "NCI 60 antitumor screening (single dose)", "details": "Homo sapiens; CAKI-1 (renal cancer), single dose 10 μM; read-out: Growth inhibition percentage (GI %)", "procedure,_shortened": "as §1"}, "HCC-2998": {"test_system": "HCC-2998", "assay": "NCI 60 antitumor screening (single dose)", "details": "Homo sapiens; HCC-2998 (colon cancer), single dose 10 μM; read-out: Growth inhibition percentage (GI %)", "procedure,_shortened": "(§2)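 Compounds were tested at a single 10 μM dose against the NCI 60-cell-line panel (nine tumour types), in triplicate. Growth was recorded as percent growth (G%) of treated cells, and growth inhibition was taken as GI% = 100 − G%.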"}, "HOP-62": {"test_system": "HOP-62", "assay": "NCI 60 antitumor screening (single dose)", "details": "Homo sapiens; HOP-62 (non-small cell lung cancer), single dose 10 μM; read-out: Growth inhibition percentage (GI %)", "procedure,_shortened": "as §2"}, "HS 578T": {"test_system": "HS 578T", "assay": "NCI 60 antitumor screening (single dose)", "details": "Homo sapiens; HS 578T (breast cancer), single dose 10 μM; read-out: Growth inhibition percentage (GI %)", "procedure,_shortened": "as §1"}, "KM 12": {"test_system": "KM 12", "assay": "NCI 60 antitumor screening (single dose)", "details": "Homo sapiens, KM12; KM 12 (colon cancer), single dose 10 μM; read-out: Growth inhibition percentage (GI %)", "procedure,_shortened": "as §1"}, "M14": {"test_system": "M14", "assay": "NCI 60 antitumor screening (single dose)", "details": "Homo sapiens; M14 (melanoma), single dose 10 μM; read-out: Growth inhibition percentage (GI %)", "procedure,_shortened": "as §1"}, "MCF7": {"test_system": "MCF7", "assay": "NCI 60 antitumor screening (single dose)", "details": "Homo sapiens; MCF7 (breast cancer), single dose 10 μM; read-out: Growth inhibition percentage (GI %)", "procedure,_shortened": "as §1"}, "NCI-H226": {"test_system": "NCI-H226", "assay": "NCI 60 antitumor screening (single dose)", "details": "Homo sapiens; NCI-H226 (non-small cell lung cancer), single dose 10 μM; read-out: Growth inhibition percentage (GI %)", "procedure,_shortened": "as §1"}, "NCI-H23": {"test_system": "NCI-H23", "assay": "NCI 60 antitumor screening (single dose)", "details": "Homo sapiens; NCI-H23 (non-small cell lung cancer), single dose 10 μM; read-out: Growth inhibition percentage (GI %)", "procedure,_shortened": "as §2"}, "NCI-H322M": {"test_system": "NCI-H322M", "assay": "NCI 60 antitumor screening (single dose)", "details": "Homo sapiens; NCI-H322M (non-small cell lung cancer), single dose 10 μM; read-out: Growth inhibition percentage (GI %)", "procedure,_shortened": "as §1"}, "NCI-H522": {"test_system": "NCI-H522", "assay": "NCI 60 antitumor screening (single dose)", "details": "Homo sapiens; NCI-H522 (non-small cell lung cancer), single dose 10 μM; read-out: Growth inhibition percentage (GI %)", "procedure,_shortened": "as §2"}, "OVCAR-4": {"test_system": "OVCAR-4", "assay": "NCI 60 antitumor screening (single dose)", "details": "Homo sapiens; OVCAR-4 (ovarian cancer), single dose 10 μM; read-out: Growth inhibition percentage (GI %)", "procedure,_shortened": "as §1"}, "OVCAR-5": {"test_system": "OVCAR-5", "assay": "NCI 60 antitumor screening (single dose)", "details": "Homo sapiens; OVCAR-5 (ovarian cancer), single dose 10 μM; read-out: Growth inhibition percentage (GI %)", "procedure,_shortened": "as §2"}, "OVCAR-8": {"test_system": "OVCAR-8", "assay": "NCI 60 antitumor screening (single dose)", "details": "Homo sapiens; OVCAR-8 (ovarian cancer), single dose 10 μM; read-out: Growth inhibition percentage (GI %)", "procedure,_shortened": "as §1"}, "PC-3": {"test_system": "PC-3", "assay": "NCI 60 antitumor screening (single dose)", "details": "Homo sapiens; PC-3 (prostate cancer), single dose 10 μM; read-out: Growth inhibition percentage (GI %)", "procedure,_shortened": "as §1"}, "SK-OV-3": {"test_system": "SK-OV-3", "assay": "NCI 60 antitumor screening (single dose)", "details": "Homo sapiens; SK-OV-3 (ovarian cancer), single dose 10 μM; read-out: Growth inhibition percentage (GI %)", "procedure,_shortened": "as §2"}, "SNB-19": {"test_system": "SNB-19", "assay": "NCI 60 antitumor screening (single dose)", "details": "Homo sapiens; SNB-19 (CNS cancer), single dose 10 μM; read-out: Growth inhibition percentage (GI %)", "procedure,_shortened": "as §1"}, "TK-10": {"test_system": "TK-10", "assay": "NCI 60 antitumor screening (single dose)", "details": "Homo sapiens; TK-10 (renal cancer), single dose 10 μM; read-out: Growth inhibition percentage (GI %)", "procedure,_shortened": "as §1"}, "U251": {"test_system": "U251", "assay": "NCI 60 antitumor screening (single dose)", "details": "Homo sapiens, U-251; U251 (CNS cancer), single dose 10 μM; read-out: Growth inhibition percentage (GI %)", "procedure,_shortened": "as §2"}, "HCT-116": {"test_system": "HCT-116", "assay": "NCI 60 antitumor screening (single dose / five doses)", "details": "Homo sapiens; HCT-116 (colon cancer), single dose 10 μM; read-out: Growth inhibition percentage (GI %)"}, "SNB-75": {"test_system": "SNB-75", "assay": "NCI 60 antitumor screening (single dose / five doses)", "details": "Homo sapiens; SNB-75 (CNS cancer), single dose 10 μM; read-out: Growth inhibition percentage (GI %)"}, "LOX IMVI": {"test_system": "LOX IMVI", "assay": "NCI 60 antitumor screening (single dose / five doses)", "details": "Homo sapiens; LOX IMVI (melanoma), single dose 10 μM; read-out: Growth inhibition percentage (GI %)"}, "NCI/ADR-RES": {"test_system": "NCI/ADR-RES", "assay": "NCI 60 antitumor screening (single dose / five doses)", "details": "Homo sapiens; NCI/ADR-RES (ovarian cancer), single dose 10 μM; read-out: Growth inhibition percentage (GI %)"}, "DU-145": {"test_system": "DU-145", "assay": "NCI 60 antitumor screening (single dose / five doses)", "details": "Homo sapiens; DU-145 (prostate cancer), single dose 10 μM; read-out: Growth inhibition percentage (GI %)"}, "BT-549": {"test_system": "BT-549", "assay": "NCI 60 antitumor screening (single dose / five doses)", "details": "Homo sapiens; BT-549 (breast cancer), single dose 10 μM; read-out: Growth inhibition percentage (GI %)"}, "T-47D": {"test_system": "T-47D", "assay": "NCI 60 antitumor screening (single dose / five doses)", "details": "Homo sapiens, T47D; T-47D (breast cancer), single dose 10 μM; read-out: Growth inhibition percentage (GI %)"}},
  "data": [
    {"smiles": "O=C(NNc1nc(NNC(=O)c2ccccc2)nc(N2CCOCC2)n1)c1ccccc1", "note": "[compound 8d, N'-[4-(morpholin-4-yl)-6-(phenylhydrazido)-1,3,5-triazin-2-yl]benzohydrazide]", "values": [
      {"measurement": "inhibition at 10 µM", "setting": "A549/ATCC", "result": 1.66, "unit": "%"},
      {"measurement": "inhibition at 10 µM", "setting": "CAKI-1", "result": 3.15, "unit": "%"},
      {"measurement": "inhibition at 10 µM", "setting": "HCC-2998", "result": -5.88, "unit": "%"},
      {"measurement": "inhibition at 10 µM", "setting": "HOP-62", "result": -11.8, "unit": "%"},
      {"measurement": "inhibition at 10 µM", "setting": "HS 578T", "result": -6.14, "unit": "%"},
      {"measurement": "inhibition at 10 µM", "setting": "KM 12", "result": -5.4, "unit": "%"},
      {"measurement": "inhibition at 10 µM", "setting": "M14", "result": -0.8, "unit": "%"},
      {"measurement": "inhibition at 10 µM", "setting": "MCF7", "result": 0.71, "unit": "%"},
      {"measurement": "inhibition at 10 µM", "setting": "NCI-H226", "result": 4.42, "unit": "%"},
      {"measurement": "inhibition at 10 µM", "setting": "NCI-H23", "result": 5.69, "unit": "%"},
      {"measurement": "inhibition at 10 µM", "setting": "NCI-H322M", "result": 4.42, "unit": "%"},
      {"measurement": "inhibition at 10 µM", "setting": "NCI-H522", "result": -2.83, "unit": "%"},
      {"measurement": "inhibition at 10 µM", "setting": "OVCAR-4", "result": -10.6, "unit": "%"},
      {"measurement": "inhibition at 10 µM", "setting": "OVCAR-5", "result": -4.08, "unit": "%"},
      {"measurement": "inhibition at 10 µM", "setting": "OVCAR-8", "result": 3.15, "unit": "%"},
      {"measurement": "inhibition at 10 µM", "setting": "PC-3", "result": -7.68, "unit": "%"},
      {"measurement": "inhibition at 10 µM", "setting": "SK-OV-3", "result": -18.5, "unit": "%"},
      {"measurement": "inhibition at 10 µM", "setting": "SNB-19", "result": 3.32, "unit": "%"},
      {"measurement": "inhibition at 10 µM", "setting": "TK-10", "result": -10.8, "unit": "%"},
      {"measurement": "inhibition at 10 µM", "setting": "U251", "result": -0.3, "unit": "%"},
      {"measurement": "inhibition at 10 µM", "setting": "HCT-116", "result": -3.34, "unit": "%"},
      {"measurement": "inhibition at 10 µM", "setting": "SNB-75", "result": 9.11, "unit": "%"},
      {"measurement": "inhibition at 10 µM", "setting": "LOX IMVI", "result": 2.21, "unit": "%"},
      {"measurement": "inhibition at 10 µM", "setting": "NCI/ADR-RES", "result": 1.24, "unit": "%"},
      {"measurement": "inhibition at 10 µM", "setting": "DU-145", "result": -7.98, "unit": "%"},
      {"measurement": "inhibition at 10 µM", "setting": "BT-549", "result": -9.45, "unit": "%"},
      {"measurement": "inhibition at 10 µM", "setting": "T-47D", "result": -10.8, "unit": "%"}
    ]}
  ]
}
